In patent publication US10822325B2, “Human GLUT5 specific inhibitors and methods of treatment” (UNM RAINFOREST INNOVATIONS, priority 2015, dated 2020):
“Also recorded” adds a separate entry of the source.

How the values were obtained:
human GLUT3 = biological target: T1, human GLUT3 (Homo sapiens, UniProt P11169); assay: Glucose entrance counter-flow transport in GLUT3 proteoliposomes; type: biochemical; conditions: 2 mM compound
T1 construct: Full length DNA was subcloned into pFastBac1 (Life Technologies) vector with a N-terminal hexahistidine tag; hexahistidine (N); made in house; host or cells: Sf21 insect cells (baculovirus, pFastBac1)
T1 sequence (P11169 1-496): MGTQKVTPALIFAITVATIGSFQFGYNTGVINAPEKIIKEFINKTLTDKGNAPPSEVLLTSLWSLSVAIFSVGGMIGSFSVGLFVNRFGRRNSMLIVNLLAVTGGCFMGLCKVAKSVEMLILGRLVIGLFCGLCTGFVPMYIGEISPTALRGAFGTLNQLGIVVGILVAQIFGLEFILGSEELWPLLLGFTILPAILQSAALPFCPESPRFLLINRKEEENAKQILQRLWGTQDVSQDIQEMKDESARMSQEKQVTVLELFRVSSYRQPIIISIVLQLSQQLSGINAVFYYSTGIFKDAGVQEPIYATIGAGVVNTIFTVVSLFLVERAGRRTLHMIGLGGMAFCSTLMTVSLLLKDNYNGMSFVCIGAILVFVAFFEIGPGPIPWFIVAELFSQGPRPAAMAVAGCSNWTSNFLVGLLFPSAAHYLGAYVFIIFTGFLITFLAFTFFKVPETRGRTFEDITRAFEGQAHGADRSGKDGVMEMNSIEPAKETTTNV
Procedure: (§1) cDNAs of GLUT1, 3, 4 and 5 were purchased from Open Biosystems (GE Healthcare). cDNAs of GLUT2 was a gift from Prof. Graeme Bell at University of Chicago. Full length DNA was subcloned into pFastBac1 (Life Technologies) vector with a N-terminal hexahistidine tag. Bacmids were generated in DH10Bac E. coli cells (Life Technologies). Baculoviruses were produced using Cellfectin II Reagent and amplified in Sf21 insect cells (Life Technologies). Cells were maintained at 26° C., and P1 (10^6 pfu/mL) was collected from infected cells after 72 hours. SF21 cells were propagated in HyClone SFX-Insect media (GE Healthcare), supplemented with 5% fetal bovine serum (Biowest), 4.8 mM glutamine, antibiotics (100 units/mL Penicillin G and 100 μg/mL streptomycin sulfate) and amphotericin B (2.5 μg/mL). […]
(§2) For the entrance counterflow transport in proteoliposomes, the assay was started by the addition of 5 μL proteoliposomes solution (OD600 nm ˜30) to 200 μL, assay solution, containing 10 μM ^14C-radiolabeled glucose (for GLUT1 wild-type or F379H mutant and GLUT2-4) or fructose (for GLUT5 wild-type or H387F mutant and GLUT2) (Moravek Biochemicals) in 100 mM KPi buffer at pH 7.5. After one minute (or different specified time points when the time-dependent counter-flow transport activity was measured), the transport was stopped with ice-chilled quench buffer [0.1 M KPi (pH 5.5) and 0.1 M lithium chloride]. […]

GLUT5H387F = biological target: T2, GLUT5H387F (Homo sapiens, UniProt P22732, H387F); assay: Fructose entrance counter-flow transport in GLUT5H387F mutant proteoliposomes; type: biochemical; conditions: 2 mM compound
T2 construct: Full length DNA was subcloned into pFastBac1 (Life Technologies) vector with a N-terminal hexahistidine tag; hexahistidine (N); made in house; host or cells: Sf21 insect cells (baculovirus, pFastBac1)
T2 sequence (P22732 1-501 H387F): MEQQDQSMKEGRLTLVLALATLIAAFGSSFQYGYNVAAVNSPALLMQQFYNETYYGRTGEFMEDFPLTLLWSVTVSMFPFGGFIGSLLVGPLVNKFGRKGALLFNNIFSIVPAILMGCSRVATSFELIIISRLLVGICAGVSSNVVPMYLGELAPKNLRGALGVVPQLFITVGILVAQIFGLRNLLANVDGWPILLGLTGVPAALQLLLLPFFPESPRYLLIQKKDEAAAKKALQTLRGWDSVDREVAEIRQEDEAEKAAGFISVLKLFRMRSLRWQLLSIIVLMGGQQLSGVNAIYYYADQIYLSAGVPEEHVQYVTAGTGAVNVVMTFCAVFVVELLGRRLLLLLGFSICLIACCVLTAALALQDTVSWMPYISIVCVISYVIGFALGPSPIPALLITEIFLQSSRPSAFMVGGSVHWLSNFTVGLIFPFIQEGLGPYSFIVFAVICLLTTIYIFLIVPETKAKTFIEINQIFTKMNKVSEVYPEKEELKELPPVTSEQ
Procedure: as §1, §2

## CS(=O)(=O)c1ccc(Nc2ccc3c(c2)OCO3)c([N+](=O)[O-])c1 [MSNBA, N-[4-(methylsulfonyl)-2-nitrophenyl]-1,3-benzodioxol-5-amine]
Human GLUT3
  effect on GLUT3 glucose transport: did not affect; also recorded: did not influence
GLUT5H387F
  activity retained by GLUT5H387F: 93%
  effect on GLUT5H387F fructose transport: largely unaffected; also recorded: almost unsusceptible
